According to patent publication US8415469B2, “Compounds and methods for kinase modulation, and indications therefor” (Plexxikon Inc., priority 2005, dated 2013):

What was measured:
Format in all cases: biochemical
Jnk3 = molecular target: T1, Jnk3 (Homo sapiens, UniProt P53779); assay: AlphaScreen kinase assay, Jnk3; conditions: read-out: IC50, activity toward kinase Jnk3
T1 construct: purchased Upstate Biotechnology

Jnk1 = molecular target: T2, Jnk1 (Homo sapiens, UniProt P45983); assay: AlphaScreen kinase assay, Jnk1; conditions: read-out: IC50, activity toward kinase Jnk1
T2 construct: purchased Upstate Biotechnology
T2 sequence (P45983 whole entry): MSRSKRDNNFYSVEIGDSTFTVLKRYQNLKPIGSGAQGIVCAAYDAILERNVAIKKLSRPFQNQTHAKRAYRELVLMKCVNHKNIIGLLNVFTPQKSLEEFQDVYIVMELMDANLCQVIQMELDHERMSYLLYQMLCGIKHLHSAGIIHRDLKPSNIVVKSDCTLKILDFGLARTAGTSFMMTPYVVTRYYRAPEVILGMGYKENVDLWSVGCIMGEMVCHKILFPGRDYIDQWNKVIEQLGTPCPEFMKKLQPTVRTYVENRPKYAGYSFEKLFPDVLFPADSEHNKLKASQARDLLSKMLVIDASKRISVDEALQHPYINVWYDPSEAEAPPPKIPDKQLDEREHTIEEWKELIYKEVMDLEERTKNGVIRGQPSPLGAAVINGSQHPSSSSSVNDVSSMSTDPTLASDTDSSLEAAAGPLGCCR

Kit = molecular target: T3, Kit (Homo sapiens, UniProt P10721); assay: AlphaScreen kinase assay, Kit; conditions: read-out: IC50, activity toward kinase Kit
T3 construct: P1332.N6 BI PTP KIT M552-K948-X COD; His6 (N); made in house; host or cells: E. coli (PTP1B co-expressed)
T3 sequence (P10721 with tags, fused parts or gaps): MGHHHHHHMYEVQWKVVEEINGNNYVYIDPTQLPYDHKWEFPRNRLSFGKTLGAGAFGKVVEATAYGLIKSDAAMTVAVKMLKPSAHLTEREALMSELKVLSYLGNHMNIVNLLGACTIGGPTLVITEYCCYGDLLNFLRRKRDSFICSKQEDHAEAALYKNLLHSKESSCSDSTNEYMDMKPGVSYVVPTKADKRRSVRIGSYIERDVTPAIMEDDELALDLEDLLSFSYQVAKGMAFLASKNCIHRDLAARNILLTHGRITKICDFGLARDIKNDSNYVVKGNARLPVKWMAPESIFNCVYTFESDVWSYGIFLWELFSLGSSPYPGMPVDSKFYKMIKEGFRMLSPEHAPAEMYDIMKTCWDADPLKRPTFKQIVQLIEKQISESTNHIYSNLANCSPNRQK

Fms = molecular target: T4, Fms (Homo sapiens, UniProt P07333); assay: AlphaScreen kinase assay, Fms; conditions: read-out: IC50, activity toward kinase Fms
T4 construct: purchased Upstate Biotechnology
T4 sequence (P07333 20-972): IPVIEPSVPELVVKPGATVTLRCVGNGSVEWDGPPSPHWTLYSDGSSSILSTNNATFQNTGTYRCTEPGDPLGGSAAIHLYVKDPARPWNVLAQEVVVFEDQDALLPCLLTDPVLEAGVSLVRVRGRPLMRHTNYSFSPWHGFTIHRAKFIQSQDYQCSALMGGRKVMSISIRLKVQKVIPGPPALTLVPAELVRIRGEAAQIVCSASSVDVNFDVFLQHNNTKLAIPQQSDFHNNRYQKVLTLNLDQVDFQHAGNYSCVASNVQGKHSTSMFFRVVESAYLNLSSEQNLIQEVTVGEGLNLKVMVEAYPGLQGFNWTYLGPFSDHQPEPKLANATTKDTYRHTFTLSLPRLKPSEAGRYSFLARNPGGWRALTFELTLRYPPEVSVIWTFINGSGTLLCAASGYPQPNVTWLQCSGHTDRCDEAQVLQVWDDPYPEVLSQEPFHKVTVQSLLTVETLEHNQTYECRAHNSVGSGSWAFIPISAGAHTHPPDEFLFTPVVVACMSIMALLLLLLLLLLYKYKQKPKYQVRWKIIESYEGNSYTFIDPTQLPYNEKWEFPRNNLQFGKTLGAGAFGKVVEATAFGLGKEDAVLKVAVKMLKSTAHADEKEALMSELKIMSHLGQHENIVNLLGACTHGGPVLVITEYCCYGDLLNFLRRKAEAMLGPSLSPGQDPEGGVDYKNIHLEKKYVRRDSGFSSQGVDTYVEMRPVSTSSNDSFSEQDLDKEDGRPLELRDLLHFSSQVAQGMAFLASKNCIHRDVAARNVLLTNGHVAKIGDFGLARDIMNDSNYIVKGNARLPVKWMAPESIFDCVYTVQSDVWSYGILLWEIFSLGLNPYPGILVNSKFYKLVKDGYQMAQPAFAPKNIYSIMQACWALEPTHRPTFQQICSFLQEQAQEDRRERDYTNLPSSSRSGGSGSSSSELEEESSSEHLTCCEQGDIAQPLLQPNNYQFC
Description: AlphaScreen assay was used to screen additional kinases. The assay is similarly dependent on the phosphorylation of a peptide substrate. In this assay, an antibody that recognizes phosphorylated substrate is bound to an acceptor bead. The peptide substrate is attached to biotin, which binds to a donor head that contains streptavidin. Thus phosphorylated substrate is bound by antibody and streptavidin, bringing the donor and acceptor heads into close proximity when kinase is not inhibited. The donor produces singlet oxygen which results in emission from the acceptor when they are in close proximity. Conversely, when kinase is inhibited, the donor and acceptor beads are not associated and the emission from the acceptor is reduced.
AlphaScreen assays were done using compounds dissolved in DMSO to a concentration of 20 mM. The compounds were diluted accordingly to the desired final concentrations in each sample well, using 1:3 serial dilution for a total of 8 concentration points. Plates were prepared such that each kinase reaction is 20 μl in 1× kinase buffer, 5% DMSO and 10 μM ATP. After incubation of the kinase reaction for 1 hour at room temperature, 5 μl of donor beads in stop buffer (50 mM EDTA in 1× kinase buffer) was added, the sample was mixed and incubated for 20 minutes at room temperature before adding 5 μl of acceptor beads in stop buffer. The samples were incubated for 60 minutes at room temperature and the signal per well was read on AlphaQuest reader.

Fak = molecular target: T5, Fak (Homo sapiens, UniProt Q05397); assay: AlphaScreen kinase assay, Fak; conditions: read-out: IC50, activity toward kinase Fak
T5 construct: P1358.pFastBacHtb FAK S411-Q686-X; His6 with pFastBacHTb leader (TEV site) (N); made in house; host or cells: Sf9 (baculovirus)
T5 sequence (Q05397 411-686): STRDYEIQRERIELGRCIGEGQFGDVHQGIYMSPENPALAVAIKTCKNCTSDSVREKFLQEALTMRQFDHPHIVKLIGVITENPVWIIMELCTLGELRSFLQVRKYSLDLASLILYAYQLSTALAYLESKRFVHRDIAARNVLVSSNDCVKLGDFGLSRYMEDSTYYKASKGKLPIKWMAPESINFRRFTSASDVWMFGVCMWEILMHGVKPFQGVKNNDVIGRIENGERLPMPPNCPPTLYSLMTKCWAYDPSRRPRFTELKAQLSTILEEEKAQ

Flt1 = molecular target: T6, Flt1 (Homo sapiens, UniProt P17948); assay: AlphaScreen kinase assay, Flt1; conditions: read-out: IC50, activity toward kinase Flt1
T6 construct: P1826.pETN6 BI-PTP FLT1 M799-D1165-X WT; His6 (N); made in house; host or cells: E. coli (PTP1B co-expressed)
T6 sequence (P17948 with tags, fused parts or gaps): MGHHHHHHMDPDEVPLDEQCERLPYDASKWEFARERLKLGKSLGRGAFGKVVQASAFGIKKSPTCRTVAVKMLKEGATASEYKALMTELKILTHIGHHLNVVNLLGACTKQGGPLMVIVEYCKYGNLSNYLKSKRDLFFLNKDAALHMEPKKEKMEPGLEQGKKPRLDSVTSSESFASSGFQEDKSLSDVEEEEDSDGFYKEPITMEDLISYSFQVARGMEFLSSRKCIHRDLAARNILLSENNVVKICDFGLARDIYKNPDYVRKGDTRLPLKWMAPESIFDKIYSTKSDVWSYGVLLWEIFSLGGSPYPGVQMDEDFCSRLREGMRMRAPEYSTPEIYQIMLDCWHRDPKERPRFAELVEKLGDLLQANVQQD

FGFR1 = molecular target: T7, FGFR1 (Homo sapiens, UniProt P11362, C488A/C584S); assay: AlphaScreen kinase assay, FGFR1; conditions: read-out: IC50, activity toward kinase FGFR
T7 construct: P1351.pET N6 BI-PTP FGFR A458-E765-X C488A, C584S; made in house; host or cells: E. coli (PTP1B co-expressed)
T7 sequence (P11362 458-765 C488A/C584S): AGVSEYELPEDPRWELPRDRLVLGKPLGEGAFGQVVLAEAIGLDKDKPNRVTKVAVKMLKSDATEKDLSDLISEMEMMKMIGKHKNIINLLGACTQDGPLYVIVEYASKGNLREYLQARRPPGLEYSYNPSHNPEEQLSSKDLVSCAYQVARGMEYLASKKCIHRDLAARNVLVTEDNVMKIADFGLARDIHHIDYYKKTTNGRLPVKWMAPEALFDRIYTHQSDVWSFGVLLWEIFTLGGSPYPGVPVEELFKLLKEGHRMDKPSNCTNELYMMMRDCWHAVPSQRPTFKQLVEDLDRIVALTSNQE

Src = molecular target: T8, Src (Homo sapiens, UniProt P12931); assay: AlphaScreen kinase assay, Src; conditions: read-out: IC50, activity toward kinase Src
T8 construct: P1144. pET-N6 BI-PTP SRC V86-L536-X; made in house
T8 sequence (P12931 with tags, fused parts or gaps): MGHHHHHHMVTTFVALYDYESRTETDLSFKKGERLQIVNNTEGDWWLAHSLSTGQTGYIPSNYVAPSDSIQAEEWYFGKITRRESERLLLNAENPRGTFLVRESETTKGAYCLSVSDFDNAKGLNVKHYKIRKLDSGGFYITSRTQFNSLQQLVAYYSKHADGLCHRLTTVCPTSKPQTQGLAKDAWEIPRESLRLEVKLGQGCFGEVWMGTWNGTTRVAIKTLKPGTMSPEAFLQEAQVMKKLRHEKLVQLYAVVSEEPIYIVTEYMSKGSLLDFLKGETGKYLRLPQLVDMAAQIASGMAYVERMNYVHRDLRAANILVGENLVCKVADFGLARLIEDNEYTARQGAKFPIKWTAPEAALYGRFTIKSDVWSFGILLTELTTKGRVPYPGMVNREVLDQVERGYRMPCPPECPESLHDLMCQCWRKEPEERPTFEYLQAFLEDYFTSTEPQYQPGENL

B-Raf = molecular target: T9, B-Raf (Homo sapiens, UniProt P15056); assay: AlphaScreen kinase assay, B-Raf; conditions: read-out: IC50, activity toward kinase B-Raf
T9 construct: purchased Upstate Biotechnology

B-Raf V600E = molecular target: T10, B-Raf V600E (Homo sapiens, UniProt P15056, V600E); assay: AlphaScreen kinase assay, B-Raf V600E; conditions: read-out: IC50, activity toward kinase B-Raf V600E
T10 construct: P4254. pFastBacBD-CDC37 BRAF D437-K722-X, V600E; His6 with pFastBac HT leader (TEV site) (N); made in house; host or cells: Sf9 (baculovirus; chaperone CDC37 co-expressed)
T10 sequence (P15056 with tags, fused parts or gaps V600E): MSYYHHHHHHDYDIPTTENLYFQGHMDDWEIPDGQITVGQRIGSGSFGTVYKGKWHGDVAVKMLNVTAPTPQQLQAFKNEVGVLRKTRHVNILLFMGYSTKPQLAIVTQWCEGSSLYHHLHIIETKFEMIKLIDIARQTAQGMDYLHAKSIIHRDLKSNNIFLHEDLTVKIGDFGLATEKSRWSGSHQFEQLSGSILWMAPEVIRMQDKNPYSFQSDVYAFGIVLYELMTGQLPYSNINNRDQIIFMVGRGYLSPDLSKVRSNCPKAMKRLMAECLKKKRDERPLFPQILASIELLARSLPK

c-Raf-1 = molecular target: T11, c-Raf-1 (Homo sapiens, UniProt P04049); assay: AlphaScreen kinase assay, c-Raf-1; conditions: read-out: IC50, activity toward kinase c-Raf-1
T11 construct: purchased Upstate Biotechnology
T11 sequence (P04049 whole entry): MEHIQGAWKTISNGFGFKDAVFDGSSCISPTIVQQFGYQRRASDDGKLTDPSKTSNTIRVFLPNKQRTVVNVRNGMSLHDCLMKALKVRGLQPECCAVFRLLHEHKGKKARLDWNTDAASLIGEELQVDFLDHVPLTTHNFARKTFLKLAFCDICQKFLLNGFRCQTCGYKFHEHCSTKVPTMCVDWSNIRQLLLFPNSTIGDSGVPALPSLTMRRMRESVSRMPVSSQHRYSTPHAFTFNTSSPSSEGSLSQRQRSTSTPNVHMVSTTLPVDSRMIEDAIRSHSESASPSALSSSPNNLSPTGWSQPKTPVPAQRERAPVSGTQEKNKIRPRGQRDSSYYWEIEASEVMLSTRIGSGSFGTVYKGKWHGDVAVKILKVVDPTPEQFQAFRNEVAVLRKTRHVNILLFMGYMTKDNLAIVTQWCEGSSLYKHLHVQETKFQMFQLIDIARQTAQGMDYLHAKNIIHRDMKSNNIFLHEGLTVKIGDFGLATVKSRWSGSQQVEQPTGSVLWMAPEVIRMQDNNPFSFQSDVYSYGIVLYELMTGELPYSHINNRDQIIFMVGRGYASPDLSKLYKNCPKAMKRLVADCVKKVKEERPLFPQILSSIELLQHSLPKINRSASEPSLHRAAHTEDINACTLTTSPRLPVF

Kdr = molecular target: T12, Kdr (Homo sapiens, UniProt P35968); assay: Z'-Lyte FRET kinase assay (Invitrogen), Kdr; conditions: read-out: IC50, activity toward kinase Kdr
T12 construct: purchased Invitrogen (assay run by Invitrogen)

Ret = molecular target: T13, Ret (Homo sapiens, UniProt P07949); assay: AlphaScreen kinase assay, Ret; conditions: read-out: IC50, activity toward kinase Ret
T13 construct: P1378.pET-SF BI-PTP RET H661-R1012 HIS; made in house
T13 sequence (P07949 with tags, fused parts or gaps): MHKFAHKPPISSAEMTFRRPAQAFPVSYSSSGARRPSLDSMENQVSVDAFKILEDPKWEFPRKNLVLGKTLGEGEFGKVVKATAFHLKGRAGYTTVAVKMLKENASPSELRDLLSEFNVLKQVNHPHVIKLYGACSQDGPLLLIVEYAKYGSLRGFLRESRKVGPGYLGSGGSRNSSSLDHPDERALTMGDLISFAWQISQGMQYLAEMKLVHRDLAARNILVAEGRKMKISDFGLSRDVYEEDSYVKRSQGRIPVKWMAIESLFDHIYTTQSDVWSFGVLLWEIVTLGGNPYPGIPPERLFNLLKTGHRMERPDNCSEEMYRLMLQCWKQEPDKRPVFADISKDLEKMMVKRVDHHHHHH

Measured: IC50

T1 sequence (P53779 whole entry): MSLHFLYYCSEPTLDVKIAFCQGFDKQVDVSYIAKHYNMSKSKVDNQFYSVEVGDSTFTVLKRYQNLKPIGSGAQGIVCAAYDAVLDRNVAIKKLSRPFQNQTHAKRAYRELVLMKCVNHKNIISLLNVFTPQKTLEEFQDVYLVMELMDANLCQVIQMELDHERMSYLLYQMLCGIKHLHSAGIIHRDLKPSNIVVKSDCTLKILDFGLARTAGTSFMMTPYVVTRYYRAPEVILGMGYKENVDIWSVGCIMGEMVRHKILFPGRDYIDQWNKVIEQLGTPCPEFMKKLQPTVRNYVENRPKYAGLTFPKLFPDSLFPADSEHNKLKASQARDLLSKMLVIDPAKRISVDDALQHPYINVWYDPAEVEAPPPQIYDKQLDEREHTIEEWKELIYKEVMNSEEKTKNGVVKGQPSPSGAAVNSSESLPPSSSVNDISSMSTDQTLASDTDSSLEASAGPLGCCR

CN(c1ccc(F)c(C(O)c2c[nH]c3ncc(-c4cccnc4)cc23)c1F)S(=O)(=O)c1ccc(C(F)(F)F)cc1 (centres unmarked) [Compound P-1400]
≤ 10 µM: Jnk3 | Jnk1 | Kit | Fms | Fak

Clc1cc(Cl)cc(Nc2c[nH]c3ncccc23)c1 [Compound P-1502, (3,5-Dichloro-phenyl)-(1H-pyrrolo[2,3-b]pyridin-3-yl)-amine]
≤ 10 µM: Flt1 | Kit | Fms | Fak

CCCS(=O)(=O)Nc1ccc(F)c(C(=O)c2c[nH]c3ncc(C)cc23)c1F [Compound P-1249]
not listed: Jnk3 | Jnk1 | Flt1 | Kdr | Ret
≤ 10 µM: all other assays above

COCCOc1ccc(F)c(C(=O)c2c[nH]c3ncc(-c4cccnc4)cc23)c1F [Compound P-1456, [2,6-Difluoro-3-(2-methoxy-ethoxy)-phenyl]-(5-pyridin-3-yl-1H-pyrrolo[2,3-b]pyridin-3-yl)-methanone]
not listed: Jnk3 | Flt1 | Src | Kdr | Ret
≤ 10 µM: all other assays above

FC(F)(F)Oc1ccc(Nc2c[nH]c3ncccc23)cc1 [Compound P-1492, (1H-Pyrrolo[2,3-b]pyridin-3-yl)-(4-trifluoromethoxy-phenyl)-amine]
≤ 10 µM: Flt1 | Fms | Fak

CCCCS(=O)(=O)Nc1ccc(F)c(C(=O)c2c[nH]c3ncc(OC)cc23)c1F [Compound P-1264, Butane-1-sulfonic acid [2,4-difluoro-3-(5-methoxy-1H-pyrrolo[2,3-b]pyridine-3-carbonyl)-phenyl]-amide]
≤ 10 µM: FGFR1 | Src | B-Raf | Kit | Fms | B-Raf V600E | Fak

COCCOc1ccc(F)c(C(O)c2c[nH]c3ncc(Br)cc23)c1F (centres unmarked) [Compound P-1452]
≤ 10 µM: FGFR1 | B-Raf | Kit | Fms | B-Raf V600E | c-Raf-1 | Fak

O=[N+]([O-])c1cccc(Cc2c[nH]c3ncc(-c4cccnc4)cc23)c1 [Compound P-1402, 3-(3-nitro-benzyl)-5-pyridin-3-yl-1H-pyrrolo[2,3-b]pyridine]
≤ 10 µM: Jnk1 | FGFR1 | Kit | Fms | B-Raf V600E | Fak

O=C(Nc1ccc(F)c(C(=O)c2c[nH]c3ncc(Br)cc23)c1F)OCc1ccccc1 [Compound P-1457]
≤ 10 µM: Src | Flt1 | B-Raf | Kit | Fms | B-Raf V600E | Fak

CCCS(=O)(=O)Nc1ccc(F)c(C(=O)c2c[nH]c3ncc(-c4ccc(N(C)C)cc4)cc23)c1F [Compound P-0889, Propane-1-sulfonic acid {3-[5-(4-dimethylamino-phenyl)-1H-pyrrolo[2,3-b]pyridine-3-carbonyl]-2,4-difluoro-phenyl}-amide]
≤ 10 µM: FGFR1 | Src | B-Raf | Kit | B-Raf V600E | c-Raf-1 | Fak

Clc1cccc(Cl)c1Cc1c[nH]c2ncc(-c3cccnc3)cc12 [Compound P-1478, 3-(2,6-Dichloro-benzyl)-5-pyridin-3-yl-1H-pyrrolo[2,3-b]pyridine]
≤ 10 µM: FGFR1 | Src | Kit | Fms | B-Raf V600E | Fak

c1cc2ccc(Nc3ccc(N4CCCCC4)cc3)nc2[nH]1 [Compound P-1359, (4-Piperidin-1-yl-phenyl)-(1H-pyrrolo[2,3-b]pyridin-6-yl)-amine]
≤ 10 µM: Jnk3 | Jnk1 | Fak

COc1ccc(F)c(C(=O)c2c[nH]c3ncc(-c4cccc(NS(C)(=O)=O)c4)cc23)c1F [Compound P-1391, N-{3-[3-(2,6-Difluoro-3-methoxy-benzoyl)-1H-pyrrolo[2,3-b]pyridin-5-yl]-phenyl}-methanesulfonamide]
not listed: Jnk3 | Jnk1 | Flt1 | Kdr | Ret
≤ 10 µM: all other assays above

COCCOc1ccc(F)c(Cc2c[nH]c3ncc(-c4cccnc4)cc23)c1F [Compound P-1458]
not listed: Flt1 | Src | Kdr | Ret
≤ 10 µM: all other assays above

c1ccc(Oc2ccc(Nc3c[nH]c4ncccc34)cc2)cc1 [Compound P-1495, (4-Phenoxy-phenyl)-(1H-pyrrolo[2,3-b]pyridin-3-yl)-amine]
≤ 10 µM: Src | Flt1 | Kit | Fms | B-Raf V600E | Fak

O=C(Nc1ccc(F)c(C(O)c2c[nH]c3ncc(Br)cc23)c1F)OCc1ccccc1 (centres unmarked) [Compound P-1451]
not listed: Jnk3 | Jnk1 | Flt1 | Kdr | Ret
≤ 10 µM: all other assays above

O=C(c1ccccc1F)c1c[nH]c2ncc(Br)cc12 [Compound P-0293]
not listed: Jnk3 | Jnk1 | Flt1 | Src | c-Raf-1
≤ 10 µM: all other assays above

COc1ccc(F)c(C(=O)c2c[nH]c3ncc(-c4ccccc4)cc23)c1F [Compound P-1387, (2,6-Difluoro-3-methoxy-phenyl)-(5-phenyl-1H-pyrrolo[2,3-b]pyridin-3-yl)-methanone]
not listed: Jnk3 | Jnk1 | Flt1 | Kdr | Ret
≤ 10 µM: all other assays above

CCCS(=O)(=O)Nc1ccc(F)c(Cc2c[nH]c3ncc(Cl)cc23)c1F [Compound P-1396]
≤ 10 µM: FGFR1 | Src | Kit | B-Raf V600E | c-Raf-1 | Fak

CCCCS(=O)(=O)Nc1ccc(F)c(C(=O)c2c[nH]c3ncc(Br)cc23)c1F [Compound P-1263, Butane-1-sulfonic acid [3-(5-bromo-1H-pyrrolo[2,3-b]pyridine-3-carbonyl)-2,4-difluoro-phenyl]-amide]
≤ 10 µM: FGFR1 | Src | B-Raf | Kit | Fms | B-Raf V600E | Fak
